Values quoted from earlier work, collected in patent US20150342872A1 (CRITITECH, INC., priority 2014, published 2015).

Legend:
[1] = test system: microtubule bundling and cytotoxic effects
[2] = 3-hour infusion, 135 versus 175 mg/m2

Q: For `CC(=O)O[C@H]1C(=O)[C@@]2(C)[C@H]([C@H](OC(=O)c3ccccc3)[C@]3(O)C[C@H](OC(=O)[C@H](O)[C@@H](NC(=O)c4ccccc4)c4ccccc4)C(C)=C1C3(C)C)[C@]1(OC(C)=O)CO[C@@H]1C[C@@H]2O` [paclitaxel], which “minimal concentration required to induce microtubule bundling and cytotoxic effects” value [1] is on record?
A: > 0.1 µmol/L

Q: What about the “increase of AUC (0-∞) for a 30% increase in dose” value [2] of the same compound?
A: 89%
